Data published in patent US20250034216A1, “STEREOSELECTIVE COVALENT LIGANDS FOR ONCOGENIC AND IMMUNOLOGICAL PROTEINS” (The Scripps Research Institute, priority 2021, published 2025).

Experiments:
DDX49_258 = molecular target: T1, DDX49_258 (Homo sapiens, UniProt Q9Y6V7); experiment: IA-DTB cysteine engagement; type: binding; settings: 22Rv1 cells, 5 μM probe, 1 h (FIG. 5B), relative to DMSO
T1 construct: endogenous in cells; host or cells: 22Rv1
How it was run: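 Cells were treated in situ with electrophilic probes, then lysed, and the lysates (2 mg/mL protein) were labeled with IA-DTB for 1 h at ambient temperature. After reduction, alkylation and trypsin digestion, labeled peptides were streptavidin-enriched, TMT-labeled and fractionated. Engagement ratios are probe vs DMSO reporter intensities, averaged across replicates.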

[1] = tested on: mRNA splicing in 22Rv1 cells; experiment: RNA sequencing, alternative splicing (rMATS); type: cell-based, human; settings: 8 hr, RNA-seq
Method: RNA sequencing libraries were prepared using the NEBNext Ultra II RNA Library Prep Kit for Illumina following manufacturer's instructions (NEB, Ipswich, MA, USA). mRNAs were first enriched with Oligo(dT) beads. Enriched mRNAs were fragmented for 15 minutes at 94° C. First strand and second strand cDNAs were subsequently synthesized. cDNA fragments were end repaired and adenylated at 3′ends, and universal adapters were ligated to cDNA fragments, followed by index addition and library enrichment by limited-cycle PCR. The sequencing libraries were validated on the Agilent TapeStation (Agilent Technologies, Palo Alto, CA, USA), and quantified by using Qubit 2.0 Fluorometer (Invitrogen, Carlsbad, CA) as well as by quantitative PCR (KAPA Biosystems, Wilmington, MA, USA). FASTQ files were first trimmed using Trim_galore (v0.6.4) to remove sequencing adapters and low quality (Q<15) reads. Trimmed sequencing reads were aligned to the human Hg19 reference genome (GENCODE, GRCh37.p13) using STAR (v2.7.5). SAM files were subsequently converted to BAM files, sorted, and indexed using samtools (v1.9). […] Read counting across genomic features was performed using featureCounts (part of the subread package; v1.5.0) using the following parameters: -p -T 20 -O -F GTF -t exon. […]
For quantification of alternative RNA splicing, BAM files generated by STAR/Samtools were analyzed using rMATS (v4.1.1) using the GENCODE (v19) GTF annotation for Hg19 (GRCh37.p13) and the following parameters: -t paired --libType fr-unstranded—readLength 150—novelSS. To utilize reads shorted than 150b.p. resulting from adapter and/or QC trimming by trim_galore, rMATS was programmed to accept soft-clipped reads of variable length. Enumeration of isoform counts was performed using only reads that span the splice junction directly. To identify high confidence AS events, events were considered significant if (i) the inclusion level difference was greater than 20% compared to DMSO, (ii) the False Discovery Rate (FDR) was smaller than 0.05, and (iii) there were a minimum of 20 reads mapping to the splice junction. […]

PHF5A_C26 = molecular target: T2, PHF5A_C26 (Homo sapiens, UniProt O75533+Q7RTV0); experiment: IA-DTB cysteine reactivity profiling; type: binding
T2 construct: endogenous in cells
Method: Sample preparation: Cells (adherent: 15 cm dishes, suspension: 2 million cells/mL) were treated with electrophilic probes in situ for indicated times and concentrations, washed with ice-cold PBS, and flash frozen in liquid nitrogen. Cell pellets were lysed by sonication (8 pulses, 40% power) in 500 μL ice-cold PBS supplemented with cOmplete protease inhibitors (1 tablet/10 mL of PBS). Whole cell lysates protein content was measured using a standard DC protein assay (Bio-Rad) and 500 μL (2 mg/mL protein content) were treated with 5 μL of 10 mM 1A-DTB (in DMSO) for 1 h at ambient temperature with occasional vortexing. Samples were methanol-chloroform precipitated with the addition of 500 μL ice-cold MeOH and 200 μL CHCl3, vortexed, and centrifuged (10 min, 10,000 g). Without disrupting the protein disk, both top and bottom layers were aspirated and the protein disk was washed with 1 mL ice-cold MeOH and centrifuged (10 min, 10,000 g). The pellets were allowed to air dry, and then re-suspended in 90 μL buffer (9 M urea, 10 mM DTT, 50 mM TEAB pH 8.5). […]
Data processing: Cysteine engagement ratios (probe vs DMSO) were calculated for each peptide-spectra match by dividing each TMT reporter ion intensity by the average intensity for the channels corresponding to DMSO treatment. […]

T1 sequence (Q9Y6V7 whole entry): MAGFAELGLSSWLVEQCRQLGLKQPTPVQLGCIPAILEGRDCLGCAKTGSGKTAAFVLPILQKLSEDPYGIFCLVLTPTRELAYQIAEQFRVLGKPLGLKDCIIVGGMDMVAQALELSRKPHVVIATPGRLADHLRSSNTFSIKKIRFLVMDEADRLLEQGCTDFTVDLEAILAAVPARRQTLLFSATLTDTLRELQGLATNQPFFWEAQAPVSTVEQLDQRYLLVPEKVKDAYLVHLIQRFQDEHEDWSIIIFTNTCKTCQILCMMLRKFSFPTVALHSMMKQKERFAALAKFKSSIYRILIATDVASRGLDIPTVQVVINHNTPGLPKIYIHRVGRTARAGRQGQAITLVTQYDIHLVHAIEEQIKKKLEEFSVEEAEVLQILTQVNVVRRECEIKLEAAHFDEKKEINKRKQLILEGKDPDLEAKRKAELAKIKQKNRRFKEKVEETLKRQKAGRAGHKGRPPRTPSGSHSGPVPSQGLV
T2 sequence (Q7RTV0 whole entry): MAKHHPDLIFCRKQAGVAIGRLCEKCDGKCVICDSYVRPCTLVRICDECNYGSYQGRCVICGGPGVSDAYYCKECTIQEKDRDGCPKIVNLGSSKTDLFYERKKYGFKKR
T2 sequence (O75533 whole entry): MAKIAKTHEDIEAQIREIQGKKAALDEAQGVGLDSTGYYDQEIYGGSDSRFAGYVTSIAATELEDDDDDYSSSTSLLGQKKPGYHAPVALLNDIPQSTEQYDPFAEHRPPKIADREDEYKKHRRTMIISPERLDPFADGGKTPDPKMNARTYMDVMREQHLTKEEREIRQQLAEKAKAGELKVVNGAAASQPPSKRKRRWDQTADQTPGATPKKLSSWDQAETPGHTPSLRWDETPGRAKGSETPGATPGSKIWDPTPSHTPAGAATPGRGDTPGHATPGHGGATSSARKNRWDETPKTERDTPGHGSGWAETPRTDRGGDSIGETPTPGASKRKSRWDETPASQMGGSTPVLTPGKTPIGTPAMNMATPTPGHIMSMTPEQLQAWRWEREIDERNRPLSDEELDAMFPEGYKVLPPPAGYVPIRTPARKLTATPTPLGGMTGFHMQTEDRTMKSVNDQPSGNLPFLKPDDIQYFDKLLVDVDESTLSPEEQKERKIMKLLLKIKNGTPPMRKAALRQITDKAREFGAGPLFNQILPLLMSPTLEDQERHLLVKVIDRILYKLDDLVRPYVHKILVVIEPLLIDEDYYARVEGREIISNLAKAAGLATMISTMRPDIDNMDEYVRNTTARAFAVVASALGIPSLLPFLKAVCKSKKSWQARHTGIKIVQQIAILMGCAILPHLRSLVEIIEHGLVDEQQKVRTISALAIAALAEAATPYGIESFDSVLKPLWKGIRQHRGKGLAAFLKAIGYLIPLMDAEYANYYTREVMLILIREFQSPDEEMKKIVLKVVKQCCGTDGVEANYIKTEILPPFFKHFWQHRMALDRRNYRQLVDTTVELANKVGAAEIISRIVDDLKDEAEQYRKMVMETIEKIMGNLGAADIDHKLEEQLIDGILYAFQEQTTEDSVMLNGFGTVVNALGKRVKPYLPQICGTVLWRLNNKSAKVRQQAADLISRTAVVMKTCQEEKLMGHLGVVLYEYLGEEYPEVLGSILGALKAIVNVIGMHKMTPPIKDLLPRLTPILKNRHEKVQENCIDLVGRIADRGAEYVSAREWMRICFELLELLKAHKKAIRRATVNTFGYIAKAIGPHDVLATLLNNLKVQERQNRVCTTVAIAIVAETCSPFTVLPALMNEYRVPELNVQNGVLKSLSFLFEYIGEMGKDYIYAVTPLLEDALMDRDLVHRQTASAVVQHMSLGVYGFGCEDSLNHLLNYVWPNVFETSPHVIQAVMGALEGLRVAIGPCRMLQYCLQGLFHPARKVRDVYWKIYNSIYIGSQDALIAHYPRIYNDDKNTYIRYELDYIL
T2 sequence (Q15393 whole entry partner): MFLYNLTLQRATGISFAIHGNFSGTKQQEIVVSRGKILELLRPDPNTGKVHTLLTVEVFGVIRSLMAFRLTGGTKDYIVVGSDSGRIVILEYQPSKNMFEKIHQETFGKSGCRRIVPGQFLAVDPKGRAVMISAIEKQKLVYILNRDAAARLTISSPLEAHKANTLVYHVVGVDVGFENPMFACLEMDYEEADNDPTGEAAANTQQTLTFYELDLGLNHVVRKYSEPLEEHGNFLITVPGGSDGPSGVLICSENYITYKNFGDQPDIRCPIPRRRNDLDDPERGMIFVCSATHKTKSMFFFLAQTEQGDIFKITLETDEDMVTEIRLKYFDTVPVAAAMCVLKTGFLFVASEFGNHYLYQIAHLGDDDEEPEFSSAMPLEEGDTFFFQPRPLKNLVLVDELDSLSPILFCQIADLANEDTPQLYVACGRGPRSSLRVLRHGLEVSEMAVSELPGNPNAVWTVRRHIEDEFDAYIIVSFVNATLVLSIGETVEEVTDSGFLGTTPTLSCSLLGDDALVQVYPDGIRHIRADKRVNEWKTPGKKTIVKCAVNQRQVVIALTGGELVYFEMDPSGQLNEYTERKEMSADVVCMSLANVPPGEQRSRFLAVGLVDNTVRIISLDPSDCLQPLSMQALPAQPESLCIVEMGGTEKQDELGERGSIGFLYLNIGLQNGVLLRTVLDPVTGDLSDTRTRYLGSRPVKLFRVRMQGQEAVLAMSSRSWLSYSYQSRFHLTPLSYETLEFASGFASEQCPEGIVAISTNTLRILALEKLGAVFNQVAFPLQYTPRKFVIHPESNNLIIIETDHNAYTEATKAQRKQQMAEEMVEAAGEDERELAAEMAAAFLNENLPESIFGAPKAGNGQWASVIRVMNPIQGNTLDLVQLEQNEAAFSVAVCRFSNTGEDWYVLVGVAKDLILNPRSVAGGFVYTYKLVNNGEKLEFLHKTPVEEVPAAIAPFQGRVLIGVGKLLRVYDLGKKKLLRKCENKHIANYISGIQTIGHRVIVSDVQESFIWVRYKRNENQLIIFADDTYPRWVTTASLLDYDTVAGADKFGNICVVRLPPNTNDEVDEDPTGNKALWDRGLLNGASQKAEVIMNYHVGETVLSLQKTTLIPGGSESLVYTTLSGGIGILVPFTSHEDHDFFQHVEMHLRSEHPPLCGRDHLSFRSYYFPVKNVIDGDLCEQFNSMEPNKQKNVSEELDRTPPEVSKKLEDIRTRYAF
T2 sequence (Q9BWJ5 whole entry partner): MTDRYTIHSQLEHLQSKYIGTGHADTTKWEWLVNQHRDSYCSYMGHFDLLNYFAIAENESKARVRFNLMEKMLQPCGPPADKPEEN

% engagement DDX49_258 (DDX49_258) [%] | engagement of PHF5A_C26 (PHF5A_C26) | Structure (SMILES) | mRNA splicing changes [1]
5.50 | – | C=CC(=O)N1C[C@H](c2ccc(Br)cc2)[C@@H]1C(=O)Nc1cccc2cccnc12 [MY-1B, (2R,3S)-1-acryloyl-3-(4-bromophenyl)-N-(quinolin-8-yl)azetidine-2-carboxamide] | –
– | did not engage | C=CC(=O)N1[C@H](c2ccc3c(c2)OCO3)c2[nH]c3ccccc3c2C[C@H]1C(=O)N1CCOCC1 [WX-02-23, 1-((1R,3S)-1-(benzo[d][1,3]dioxol-S-yl)-3-(morpholine-4-carbonyl)-1,3,4,9-tetrahydro-2H-pyrido [3,4-b]indol-2-yl)prop-2-en-1-one] | induction of both intron retention and exon skipping events
– | – | C=CC(=O)N1[C@@H](c2ccc3c(c2)OCO3)c2[nH]c3ccccc3c2C[C@@H]1C(=O)N1CCOCC1 [WX-02-43, 1-((1S,3R)-1-(benzo[d][1,3]dioxol-5-yl)-3-(morpholine-4-carbonyl)-1,3,4,9-tetrahydro-2H-pyrido [3,4-b]indol-2-yl)prop-2-en-1-one] | No such splicing effects were observed
82.25 | – | CC#CC(=O)N1C[C@H](c2ccc(Br)cc2)[C@@H]1C(=O)Nc1cccc2cccnc12 [MY-45B, (2R,3S)-3-(4-bromophenyl)-1-(but-2-ynoyl)-N-(quinolin-8-yl)azetidine-2-carboxamide] | –
